Data: patent US20140045809A1, “CORROLES FOR NEUROPROTECTION AND NEURORESCUE” (priority 2008, published 2014)
Like-named read-outs stand apart in the source and are kept apart here.

Columns and labels:
INS-1E cells = assay: Protection of INS-1E cells against SIN-1 toxicity (MTT); type: cell-based, rat; conditions: 10 μM, 30 min before SIN-1 (500 or 600 μM), 24 h
Procedure: (§1) INS-1E cells or RIN-m cells were cultured in RPMI with low serum content (2% FCS), placed in microtiter plates (96 wells) at a density of 2.5×10^4 cells/well and allowed to attach for 24 h before treatment. Corroles 1C-Fe and 5C-Fe (10 μM) were added 30 min prior to insult with the nitric oxide donor SIN-1 (500 or 600 μM) for a subsequent 24 h period. Cell viability was evaluated by a colorimetric assay for mitochondrial function using 3-(4,5-dimethylthiazol-2-yl)-2,5-diphenyltetrazolium bromide (MTT test), and expressed as percentage of untreated control. Values higher than 100% reflect increased mitochondrial activity induced by the drug. The results represent the mean±SEM of three independent experiments performed under the same conditions.

SH-SY5Y cells [1] = type: cell-based; conditions: 24 h
Procedure: SH-SY5Y cells were cultured in DMEM-Eagle/F-12(HAM) (1:1) containing 10% FCS. Cells were resuspended in medium containing 2% FCS, seeded in microtiter plates (96 wells) and allowed to attach for 24 h. To examine the neuroprotective effect, cells were pretreated for 30 min with corroles 1C-Fe and 5C-Fe (1-20 μM), and were then exposed to 6-OHDA (60 μM) for further 24 h. For neurorescue assessment, SH-SY5Y cells were first treated with 6-OHDA (60 μM) for 0.5 h, 1.5 h, 3 h and 6 h followed by the addition of compounds 1C-Fe and 5C-Fe (10 μM) for further 24 h.
SH-SY5Y cells were pretreated with or without corroles 1C-Fe, 2C-Mn and 3C-Mn and porphyrins 1P-Fe and 2P-Mn (20 μM), 30 min before exposure to 6-OHDA (40 μM) for a subsequent 24 h period. Cell viability was evaluated by MTT test and cell death was assessed using the apoptotic cell death detection ELISA kit. For neurorescue, SH-SY5Y cells were first exposed to 40 μM 6-OHDA for 0.5. 1, 1.5 and 3 h, followed by the addition of the compounds 1C-Fe, 2C-Mn and 3C-Mn (20 μM) and incubated for further 24 h. Growth-associated protein (GAP-43) was detected by fluorescence microscopy using a specific primary antibody. Apoptotic nuclei were determined by terminal deoxynucleotidyl transferase-mediated UTP-digoxigenin nick end labeling analysis. 4′,6-Diamidino-2-phenylnidole (DAPI) staining was applied for nuclear labeling. […]

RIN-m cells [2] = assay: Protection of RIN-m cells against SIN-1 toxicity (MTT); type: cell-based, rat; conditions: 10 μM, 30 min before SIN-1 (500 or 600 μM), 24 h
Procedure: as §1
Insulin-secreting RIN-m cells were incubated in RPMI with low serum content (2% FCS) and placed in microtiter plates (96 wells) at a density of 2.5×10^4 cells/well and allowed to attach for 24 h before treatment. Cells were treated with corroles 1C-Fe, 1C-Mn or 2C-Mn or porphyrins 1P-Fe or 2P-Mn, in various concentrations (0.1-20 μM), for 30 min prior to insult with SIN-1 (800 μM) for a subsequent 24 h period. Cell viability was evaluated by MTT test and expressed as percentage of untreated control.

SH-SY5Y cells [3] = assay: Neuroprotection/neurorescue against SIN-1-induced cell death in SH-SY5Y cells; type: cell-based, human; conditions: 24 h (Example 11)
Procedure: SH-SY5Y cells were cultured in DMEM-Eagle/F-12(HAM) (1:1) containing 10% FCS. Cells were resuspended in medium containing 2% FCS, seeded in microtiter plates (96 wells) and allowed to attach for 24 h before initiation of treatment. […]

SH-SY5Y cells [4] = type: cell-based
Procedure: Human neuroblastoma cell line was also examined under conditions similar to RIN-m cells to reveal the corrole's ability to prevent neuronal death caused by oxidative stress. SH-SY5Y cells were plated in microtiter plates (96 wells) in DMEM-Eagle/F-12(HAM) (1:1), containing 10% FCS. To examine neuroprotective effect, SH-SY5Y cells were treated for 30 min with corroles 1C-Fe and 5C-Fe (20 and 50 μM) before addition of 20 μM H2O2 for 24 h. To examine neurorescue, SH-SY5Y cells were first exposed to 20 μM H2O2 for 0.5 h, 1.5 h or 3 h, followed by the addition of corroles 1C-Fe and 5C-Fe (20 μM) and incubation for 24 h.
Compounds 1C-Fe and 1P-Fe (1-50 μM) were added 30 min before insult with H2O2 (200 μM), followed by a subsequent 24 h period. The neuroprotective effects of the iron corrole 1C-Fe and its structurally analogous iron porphyrin 1P-Fe, against H2O2-induced neurotoxicity were investigated using MTT reduction assay and cell death ELISA, based on the use of mouse monoclonal antibodies to detect free histones and fragmented DNA (F. Hollderieder et al, Biochemica 2002, 1, 25). […] In light of the observed neuroprotective effect of corrole 1C-Fe, we attempted to determine the length of the delay between H2O2 exposure and corrole 1C-Fe treatment that would still afford neuroprotection. H2O2 was administered to SH-SY5Y cells and corrole 1C-Fe was then added for 0.5-1.5 h thereafter. […]

NSC-34 G93A cells = assay: Cell culture model of familial ALS, NSC-34 cells expressing mutant G93A-SOD1; type: cell-based, mouse; conditions: 48 h induction; even at a concentration as low as 0.5 μM
Procedure: Mutant-superoxide dismutase (G93A-SOD1) is associated with familial amyotrophic lateral sclerosis (FALS). A cell culture model of FALS was implemented by stably transfecting mouse motoneuronal NSC-34 cells or SH-SY5Y cells, to express mutant G93A-SOD1 at levels approximating those seen in the human disease. NSC-34 cells or SH-SY5Y cells were incubated in Dulbecco's modified Eagle's/F-12 medium supplemented with 10% FCS tetracycline-free (FCS Tet-free; Clontech), at 37° C. in an atmosphere of 5% CO2 in air. These cell lines are stably transfected with the pTet-ON plasmid (Clontech, Palo Alto, Calif.) coding for the reverse tetracycline controlled transactivator (rtTA). Induction of mutant SOD1 expression was obtained by shifting nonconfluent cultures into growth medium containing 1% N2 supplement (Invitrogen, Carlsbad, Calif.) and […] doxocyclin for 48 h in the presence or absence of corrole 1C-Fe and 5C-Fe.

RIN-m cells [5] = assay: Protection of RIN-m beta cells against H2O2 toxicity (MTT); type: cell-based, rat; conditions: 20 μM, 30 min before 35 μM H2O2, 24 h
Procedure: Two insulin-secreting beta cell lines, rat insulinoma (INS-1E) and RIN-m cells, were used to examine the protective effect of corrole 1C-Fe. The cells were cultured at 37° C., in a humid 5% CO2, 95% air environment in regular RPMI-1640 medium (Invitrogen) supplemented with 5% fetal calf serum (FCS).
After 2 days of culture, RIN-m cells (5×10^4 cells/well in 96-well plates) were treated with corrole 1C-Fe (1-50 μM) before addition of 35 μM of H2O2. Cell viability was evaluated by a colorimetric assay for mitochondrial function estimation using the MTT test as previously described (Gassen et al., 1998) and expressed as percentage of control.
RIN-m cells were grown as described in Example 5. After 3 days of culture, RIN-m cells (2.5×10^4 cells/well in 96-well plates) were treated with corroles 1C-Fe or 5C-Fe or porphyrin 1P-Fe (1 and 20 μM), added 30 min prior to treatment with 35 μM H2O2 and further incubated for 24 h. Cell injury was evaluated by MTT test. […] […].
Protective effect of iron(III) corrole complexes against H2O2-induced toxicity (150 μM) was compared to that of manganese(III) corroles and related porphyrin. […].

[6] = tested on: nigral dopaminergic neurons; conditions: MPTP model, also given post-MPTP; Gal et al., 2005; cited from earlier work
MAO-B = biological target: T1, MAO-B (Mus musculus, UniProt Q8BW75); conditions: Gal et al., 2005, cited from earlier work
T1 construct: host or cells: brain and peripheral organs of treated animals
T1 sequence (Q8BW75 1-520): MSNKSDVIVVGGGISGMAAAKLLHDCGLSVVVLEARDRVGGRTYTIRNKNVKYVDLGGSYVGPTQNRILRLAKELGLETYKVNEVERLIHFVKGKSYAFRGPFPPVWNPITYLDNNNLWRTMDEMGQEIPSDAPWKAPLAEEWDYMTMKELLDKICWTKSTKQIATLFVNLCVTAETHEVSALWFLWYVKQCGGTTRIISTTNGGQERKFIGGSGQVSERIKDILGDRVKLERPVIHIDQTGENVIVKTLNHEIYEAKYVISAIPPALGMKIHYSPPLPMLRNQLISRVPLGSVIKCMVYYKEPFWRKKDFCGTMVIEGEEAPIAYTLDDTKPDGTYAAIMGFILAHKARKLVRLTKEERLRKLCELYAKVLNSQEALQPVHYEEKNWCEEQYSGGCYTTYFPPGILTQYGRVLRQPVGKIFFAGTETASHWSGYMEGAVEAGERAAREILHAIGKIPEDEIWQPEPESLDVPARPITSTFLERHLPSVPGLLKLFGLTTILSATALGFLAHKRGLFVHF

MAO-A = biological target: T2, MAO-A (Mus musculus, UniProt Q64133); conditions: Gal et al., 2005, cited from earlier work
T2 construct: host or cells: brain and peripheral organs of treated animals
T2 sequence (Q64133 1-526): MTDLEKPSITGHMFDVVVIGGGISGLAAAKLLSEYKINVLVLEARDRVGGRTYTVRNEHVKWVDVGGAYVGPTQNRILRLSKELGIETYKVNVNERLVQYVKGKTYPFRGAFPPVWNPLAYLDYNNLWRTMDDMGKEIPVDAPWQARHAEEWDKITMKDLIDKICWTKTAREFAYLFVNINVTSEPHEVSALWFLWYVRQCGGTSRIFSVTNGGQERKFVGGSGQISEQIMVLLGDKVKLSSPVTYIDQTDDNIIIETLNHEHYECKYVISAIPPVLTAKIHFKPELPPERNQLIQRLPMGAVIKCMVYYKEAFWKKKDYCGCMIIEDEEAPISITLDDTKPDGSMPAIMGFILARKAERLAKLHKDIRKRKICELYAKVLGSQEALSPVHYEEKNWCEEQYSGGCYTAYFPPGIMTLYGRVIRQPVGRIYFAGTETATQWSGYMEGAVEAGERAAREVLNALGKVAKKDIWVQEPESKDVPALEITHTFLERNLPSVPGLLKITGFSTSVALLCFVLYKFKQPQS

O=C(O)CNS(=O)(=O)c1cc2[n]3c1C(c1c(F)c(F)c(F)c(F)c1F)=C1C=CC4=[N+]1[Fe-]31[n]3c(cc(S(=O)(=O)NCC(=O)O)c3-2)C(c2c(F)c(F)c(F)c(F)c2F)=c2ccc([n]21)=C4c1c(F)c(F)c(F)c(F)c1F (stereo not shown) [5C-Fe, 2,17-bis(N-sulfonylglycine)-5,10,15-tris(pentafluoro-phenyl)-corrolato iron(III)]
protective effect against SIN-1 induced toxicity (MTT) (INS-1E cells): marked protective effect | neuroprotective effect against 6-OHDA-induced toxicity (SH-SY5Y cells [1]; 1-20 μM, 30 min before 6-OHDA (60 μM)): dose-dependent neuroprotective effect | neurorescue after 6-OHDA insult (SH-SY5Y cells [1]; 6-OHDA (60 μM) for 0.5, 1.5, 3 and 6 h, then 10 μM): instigated neurorescue | protective effect against SIN-1 induced toxicity (MTT) (RIN-m cells [2]): marked protective effect | neurorescue after SIN-1 insult (SH-SY5Y cells [3]; 20 μM added 0.5, 1.5 or 3 h after insult): instigated neurorescue | neuroprotective effect against SIN-1 induced toxicity (SH-SY5Y cells [3]; 10 and 20 μM, 30 min pretreatment): dose-dependent neuroprotective effect | neurorescue after H2O2 insult (SH-SY5Y cells [4]; 20 μM H2O2 for 0.5, 1.5 or 3 h, then 20 μM corrole, 24 h): instigated neurorescue | neuroprotective effect against H2O2-induced toxicity (SH-SY5Y cells [4]; 20 and 50 μM, 30 min before 20 μM H2O2, 24 h): dose-dependent neuroprotective effect | cell viability of induced mutant cells (NSC-34 G93A cells): significantly improved cell viability | protective effect against H2O2 toxicity relative to porphyrin 1P-Fe (MTT) (RIN-m cells [5]): exhibit a greater protective effect

C#CCN(C)Cc1ccc(O)c2ncccc12 [M-30]
neuroprotection and restoration of nigral dopaminergic neurons [6]: neuroprotective and also have the ability to restore nigral dopaminergic neurons when given post-MPTP | MAO-B inhibition (MAO-B; in peripheral organs): poorly | MAO-B inhibition (MAO-B; in the brain): potently inhibits | MAO-A inhibition (MAO-A; in peripheral organs): poorly | MAO-A inhibition (MAO-A; in the brain): potently inhibits

C#CCN[C@@H]1CCc2ccccc21 [rasagiline]
neuroprotection and restoration of nigral dopaminergic neurons [6]: neuroprotective and also have the ability to restore nigral dopaminergic neurons when given post-MPTP
